Reference: publication PMC12010937, “Evaluation of FXR Activity in Pollutants Identified in Sewage Sludge and Subsequent in Vitro and in Vivo Characterization of Metabolic Effects of Triphenyl Phosphate” (Environmental Health Perspectives, 2025)
Several values for one entry are separate records, joined by “and”; a condition that tells them apart may be missing. Equal entries are not always repeated. Where two headings read alike, the source gives them in different places.

Assays:
[1] = Analysis of TPHP in mice (serum, liver, ileum) by UPLC-MS/MS; format: in vivo, C57BL/6N mice; conditions: mouse
Description: (§1) Male C57BL/6N mice (8 wk of age) were purchased from Beijing Vital River Laboratory Inc. and acclimated to the environment for 2 wk before they were used for experiments. The environment was maintained at 22°C, in a 12-h light/dark cycle with 50%–60% relative humidity and fed standard chow diets. Because the male mice are more sensitive to metabolic disease than female mice and the estrous cycle of female mice may induce variability to the metabolic phenotypes,[50] only male mice were used in this study. Animals were randomly assigned to control or TPHP treatment groups (five mice per group). Mice were exposed to corn oil (control) purchased from Sigma-Aldrich (C8267) or TPHP (dissolved in corn oil) at 10mg/kg or 50mg/kg body weight (BW) by daily oral gavage for 35 d. The administered volume was 5mL/kg BW. The TPHP corn oil solutions for administration were prepared by dissolving the TPHP in corn oil, and the solutions were stored at −20°C and freshly prepared each week. BW was measured every other day during the dosing period. At the end of experiments, the mice were anesthetized with isoflurane, then blood was collected from the retro-orbital sinus via orbital puncture, and then the mice were euthanized by cervical dislocation. The liver was isolated, weighted, and divided into three fractions: one fraction was fixed with 4% neutral-buffered formalin for Oil Red staining; another fraction was frozen in liquid nitrogen and stored at −80°C for the BA targeted analysis, lipidomic analysis, and qPCR analysis; the remaining fraction was embedded with 3% carboxymethylcellulose (CMC) for MSI analysis. The ileum was also isolated, weighted, and stored at −80°C for the BA targeted analysis and qRT-PCR analysis. Cecal contents were collected from the cecum of mice for the 16S rRNA gene sequencing analysis. Animal study protocols were approved by the Animal Care and Use Committee of Peking University (approval number: Urban-WanY-1).
Samples of serum ( 100μL ) and freeze-dried liver ( 50mg ) and ileum tissues ( 10mg ) were spiked with 10μL of 100 ng/mL TPHP- d15 (CDAA-412134D15; ANPEL) and extracted with 2mL of ethyl acetate for 10 min on an orbital shaker. After centrifuging at 4,000×g for 10 min, the supernatants were transferred to glass tubes. The extraction process was performed twice, and the supernatants were combined, concentrated to near dryness under a gentle stream of nitrogen, and reconstituted in 1mL of n -hexane. Then, the extracts were loaded on a Sep-Pak Aminopropyl ( NH2 ) cartridge (6cc, 500mg; Waters) preconditioned with 6mL of dichloromethane, 6mL of dichloromethane/n-hexane (1:4, v/v), and 6mL of n -hexane. After being rinsed with 6mL of n -hexane and 6mL of dichloromethane/n-hexane (1:4, v/v), the target analytes were eluted with 3mL of dichloromethane. The eluates were dried under a gentle stream of nitrogen and reconstituted in 100μL of methanol.
Analysis of TPHP was performed on a Waters Xevo TQ-XS Triple Quadrupole mass spectrometer coupled with the Waters ACQUITY UPLC I-Class System. An InfinityLab Poroshell C18 column ( 100×2.1mm , 1.9μm ) was used. The injection volume was 5μL . Ultrapure water (0.1% formic acid) (A) and acetonitrile (B) were used as the mobile phases. The elution gradient was performed as follows: 0–3 min, 50% B; 3–6 min, 50%−70% B; 6–6.2 min, 70%−100% B; 6.2–8.5 min, 100%−100% B; 8.5–8.6 min, 100%−50% B; 8.6–10 min, 50% B. The rate of flow was 0.3mL/min . The column temperature was maintained at 40°C. The mass spectrometer was equipped with an ESI source and operated in multiple reaction monitoring (MRM) and positive ion mode. A capillary voltage of 3.0 kV , a source temperature of 150°C, and a desolvation temperature of 500°C were used. Desolvation gas and the cone gas flow were set as 1,200 liters/h and 150 liters/h , respectively, and the collision gas was 0.15mL/min . […] The matrix effects were 114.9±4.3% and 118.4±0.5% for the serum and tissues, respectively.

[2] = Body weight during exposure; format: in vivo, C57BL/6N mice; conditions: for Relative body weight / Body weight: individual mice
Description: as §1

O=P(Oc1ccccc1)(Oc1ccccc1)Oc1ccccc1 [TPHP, triphenyl phosphate]
concentration at 35 d ([1]; male, C57BL/6N, ileum, TPHP-H: 50 mg/kg daily oral gavage 35 d, read-out: TPHP concentration in ileum): 13.2 ± 0.91 ng/g
concentration at 35 d ([1]; male, C57BL/6N, ileum, TPHP-L: 10 mg/kg daily oral gavage 35 d, read-out: TPHP concentration in ileum): 7.24 ± 1.33 ng/g
concentration at 35 d ([1]; male, C57BL/6N, liver, TPHP-H: 50 mg/kg daily oral gavage 35 d, read-out: TPHP concentration in liver): 12.9 ± 3.31 ng/g
concentration at 35 d ([1]; male, C57BL/6N, liver, TPHP-L: 10 mg/kg daily oral gavage 35 d, read-out: TPHP concentration in liver): 5.33 ± 1.91 ng/g
concentration at 35 d ([1]; serum, TPHP-H: 50 mg/kg daily oral gavage 35 d, male C57BL/6N mice, read-out: TPHP concentration in serum): 0.79 ± 0.36 ng/mL
concentration at 35 d ([1]; serum, TPHP-L: 10 mg/kg daily oral gavage 35 d, male C57BL/6N mice, read-out: TPHP concentration in serum): 0.32 ± 0.03 ng/mL
Body weight vs control group (in words) ([2]; TPHP-L and TPHP-H groups, last week of 35 d exposure): significantly high BW
Relative body weight ([2]; day0, TPHP-H group): 100%
Relative body weight ([2]; day0, TPHP-L group): 100%
Relative body weight ([2]; day2, TPHP-H group): 100.00% and 95.33% and 100.77% and 93.99% and 94.87%
Relative body weight ([2]; day2, TPHP-L group): 100.70% and 96.31% and 97.06% and 97.18% and 97.32%
Relative body weight ([2]; day4, TPHP-H group): 97.19% and 93.33% and 101.54% and 92.93% and 92.67%
Relative body weight ([2]; day4, TPHP-L group): 97.89% and 93.62% and 95.96% and 97.58% and 94.25%
Relative body weight ([2]; day6, TPHP-H group): 97.59% and 92.00% and 101.92% and 90.46% and 91.58%
Relative body weight ([2]; day6, TPHP-L group): 98.24% and 94.30% and 94.12% and 97.18% and 94.25%
Relative body weight ([2]; day8, TPHP-H group): 98.39% and 93.00% and 103.85% and 92.23% and 93.41%
Relative body weight ([2]; day8, TPHP-L group): 98.59% and 94.30% and 95.59% and 96.37% and 95.40%
Relative body weight ([2]; day10, TPHP-H group): 98.39% and 92.67% (2×) and 103.85% and 90.46%
Relative body weight ([2]; day10, TPHP-L group): 98.24% and 94.30% and 95.59% and 95.97% and 94.25%
Body weight ([2]; day12, TPHP-H group): 24.8 g and 28.9 g and 27.4 g and 26.1 g (2×)
Relative body weight ([2]; day12, TPHP-H group): 99.60% and 96.33% and 105.38% and 92.23% and 95.60%
Body weight ([2]; day12, TPHP-L group): 28.0 g and 28.2 g and 26.3 g and 24.2 g and 24.9 g
Relative body weight ([2]; day12, TPHP-L group): 98.59% and 94.63% and 96.69% and 97.58% and 95.40%
Body weight ([2]; day14, TPHP-H group): 24.9 g and 29.3 g and 27.7 g and 25.9 g and 26.3 g
Relative body weight ([2]; day14, TPHP-H group): 100.00% and 97.67% and 106.54% and 91.52% and 96.34%
Body weight ([2]; day14, TPHP-L group): 28.7 g and 28.5 g and 26.4 g and 23.8 g and 25.1 g
Relative body weight ([2]; day14, TPHP-L group): 101.06% and 95.64% and 97.06% and 95.97% and 96.17%
Body weight ([2]; day16, TPHP-H group): 25.2 g and 29.6 g and 28.2 g and 26.6 g and 26.7 g
Relative body weight ([2]; day16, TPHP-H group): 101.20% and 98.67% and 108.46% and 93.99% and 97.80%
Body weight ([2]; day16, TPHP-L group): 28.9 g (2×) and 27.2 g and 24.0 g and 25.4 g
Relative body weight ([2]; day16, TPHP-L group): 101.76% and 96.98% and 100.00% and 96.77% and 97.32%
Body weight ([2]; day18, TPHP-H group): 25.6 g and 30.6 g and 28.3 g and 26.9 g and 27.4 g
Relative body weight ([2]; day18, TPHP-H group): 102.81% and 102.00% and 108.85% and 95.05% and 100.37%
Body weight ([2]; day18, TPHP-L group): 29.0 g and 29.3 g and 27.4 g and 24.4 g and 25.6 g
Relative body weight ([2]; day18, TPHP-L group): 102.11% and 98.32% and 100.74% and 98.39% and 98.08%
Body weight ([2]; day20, TPHP-H group): 25.6 g and 30.4 g and 28.2 g and 27.6 g (2×)
Body weight ([2]; day20, TPHP-L group): 29.6 g and 30.1 g and 27.7 g and 25.0 g and 26.0 g
Body weight ([2]; day22, TPHP-H group): 25.7 g and 30.4 g and 27.7 g and 27.6 g and 28.0 g
Body weight ([2]; day22, TPHP-L group): 29.5 g and 29.1 g and 27.8 g and 25.2 g and 26.1 g
Body weight ([2]; day24, TPHP-H group): 26.2 g and 30.9 g and 27.9 g and 28.0 g and 28.4 g
Body weight ([2]; day24, TPHP-L group): 29.9 g and 30.1 g and 28.1 g and 25.1 g and 26.4 g
Body weight ([2]; day26, TPHP-H group): 26.8 g and 31.6 g and 28.0 g and 27.8 g and 28.5 g
Body weight ([2]; day26, TPHP-L group): 30.2 g and 31.0 g and 28.7 g and 25.9 g and 26.7 g
Body weight ([2]; day28, TPHP-H group): 27.0 g and 31.6 g and 27.9 g and 28.1 g and 28.9 g
Body weight ([2]; day28, TPHP-L group): 30.1 g and 31.3 g and 28.7 g and 25.4 g and 26.8 g
Body weight ([2]; day30, TPHP-H group): 27.3 g and 32.3 g and 28.7 g and 28.3 g and 29.8 g
Body weight ([2]; day30, TPHP-L group): 29.9 g and 31.6 g and 29.4 g and 26.2 g and 27.1 g
